# Patent US20100172836A1, “SYNTHESIS OF 18F-RADIOLABELED STYRYLPYRIDINES FROM TOSYLATE PRECURSORS AND STABLE PHARMACEUTICAL COMPOSITIONS THEREOF” (AVID RADIOPHARMACEUTICALS, INC., priority 2008, published 2010)
# Columns and labels:
# Assay type in all cases: physicochemical
# [1] = Radiochemical purity of ^18F-AV-45 Injection with and without sodium ascorbate (HPLC with radiometric detection)
# Experimental: The ^18F-AV-45 radiopharmaceutical compositions of embodiments of the invention are remarkably stable to radiolysis or chemical degradation. Sodium ascorbate is used to minimize radiolysis during the purification of ^18F-AV-45 and in the final drug product solution to increase stability and shelf life. Ethanol at 1-10% (v/v) in aqueous solution aids in the solubilization of ^18F-AV-45. […] The compositions were analyzed at end-of-synthesis (EOS) using reverse HPLC, equipped with both an ultra violet (UV) detector and radiochemical detector. The radiochemical purity of ^18F-AV-45 was monitored by HPLC with radiometric detection and the purity of ^19F-AV-45 was monitored by HPLC UV detection in the drug product by Area Percent Normalization. At EOS, the radiochemical purity of the ^18F-AV-45 composition prepared without sodium ascorbate was 84% and decomposed further such that at 2 hours the purity was 80%. […] At EOS, the purity was 96% with negligible decomposition at 2 hours post EOS (purity of 95%).
# [2] = Stability of ^18F-AV-45 drug product in vials, upright and inverted, at ambient, 40° C. and 50° C. over 12 hours; conditions: three lots
# Experimental: The stability of the drug product was evaluated on three separate manufacturing lots of ^18F-AV-45. Vials were stored upright and inverted at ambient and 40° C. temperatures, and upright at 50° C. Drug product was sampled at the specified intervals over a 12 hour testing period and evaluated for radiochemical purity and strength.
# [3] = Extended stability of ^18F-AV-45 Injection formulated with sodium ascorbate at 0.5% (% RCP)
# Experimental: (§1) The ^18F-AV-45 radiopharmaceutical compositions of embodiments of the invention are remarkably stable to radiolysis or chemical degradation. Sodium ascorbate is used to minimize radiolysis during the purification of ^18F-AV-45 and in the final drug product solution to increase stability and shelf life. Ethanol at 1-10% (v/v) in aqueous solution aids in the solubilization of ^18F-AV-45. […] The compositions were analyzed at end-of-synthesis (EOS) using reverse HPLC, equipped with both an ultra violet (UV) detector and radiochemical detector. The radiochemical purity of ^18F-AV-45 was monitored by HPLC with radiometric detection and the purity of ^19F-AV-45 was monitored by HPLC UV detection in the drug product by Area Percent Normalization.
# As noted, the radiochemical purity of the ^18F compound is maintained for up to approximately 20 hours after production.
# [4] = Solubility of AV-45 in the drug product composition (visual inspection, HPLC after centrifugation)
# Experimental: The ^18F-AV-45 radiopharmaceutical formulation/composition was evaluated for the solubility of the non-radioactive ^19F-AV-45, which is also formed in quantities of 1-5 μg/mL during the radiosynthesis of ^18F-AV-45 due to the presence of small quantities of ^19F-fluoride from tubing, valves and other sources in the radiosynthesis system. In the absence of ethanol in the composition, particulate matter may be observed due to the low solubility of ^19F-AV-45. The addition of 10% ethanol to the radiopharmaceutical composition was, therefore, evaluated to determine if the solubility of ^19F-AV-45 was sufficient to avoid the potential of precipitate formation. […] A visible precipitate was noticeable in solutions with concentrations ≧22 μg/mL. Samples prepared at concentrations ≦20 μg/mL were evaluated by HPLC analysis following centrifugation. Samples with ≦20 μg/mL were also tested after storage for one week at ambient temperature.
# [5] = UV purity of ^19F-AV-45 in ^18F-AV-45 Injection (HPLC UV detection at 350 nm, area percent)
# Experimental: as §1
# [6] = lot AV4520080304, manufactured without sodium ascorbate (444 MBq/mL), EOS
# [7] = lot AV4520080603, manufactured with sodium ascorbate (1036 MBq/mL), EOS
"% ^18F AV-45 Purity (radiochemical) ([1]; lot AV4520080304, manufactured without sodium ascorbate (444 MBq/mL), 2-hour post EOS)","% ^18F AV-45 Purity (radiochemical) ([1]; lot AV4520080304, manufactured without sodium ascorbate (444 MBq/mL), 2-hour post EOS, listed as 18F AV-45)","% ^18F AV-45 Purity (radiochemical) [1, 6]","% ^18F AV-45 Purity (radiochemical) ([1]; lot AV4520080304, manufactured without sodium ascorbate (444 MBq/mL), EOS, listed as 18F AV-45)","% ^18F AV-45 Purity (radiochemical) ([1]; lot AV4520080603, manufactured with sodium ascorbate (1036 MBq/mL), 2-hour post EOS)","% ^18F AV-45 Purity (radiochemical) ([1]; lot AV4520080603, manufactured with sodium ascorbate (1036 MBq/mL), 2-hour post EOS, listed as 18F AV-45)","% ^18F AV-45 Purity (radiochemical) [1, 7]","% ^18F AV-45 Purity (radiochemical) ([1]; lot AV4520080603, manufactured with sodium ascorbate (1036 MBq/mL), EOS, listed as 18F AV-45)","RCP over 12 hours ([2]; 10% (v/v) ethanol in normal saline, 0.5% (w/v) sodium ascorbate, vials upright and inverted at ambient and 40° C., upright at 50° C.)","drift of the drug product strength ([2]; over 12 hours, all temperatures tested (ambient, 40° C., 50° C.))",time after production for which radiochemical purity is maintained ([3]; approximately 10% (v/v) ethanol in normal saline containing 0.5% (w/v) sodium ascorbate),"RCP (stability maintained) ([3]; composition comprising ethyl alcohol and sodium ascorbate, up to 20 hours post-production)","solubility limit ([4]; 10% (v/v) EtOH and 0.5% (w/v) sodium ascorbate in 0.9% aqueous sodium chloride, ambient temperature)","concentrations at which a visible precipitate was noticeable ([4]; drug product composition (10% EtOH, 0.5% sodium ascorbate, 0.9% NaCl))","change in concentration after one week of storage ([4]; samples ≦20 μg/mL, ambient temperature, HPLC)","UV purity by area percent at 350 nm ([5]; lot AV4520080304, manufactured without sodium ascorbate (444 MBq/mL), 2-h post EOS)","UV purity by area percent at 350 nm [5, 6]","UV purity by area percent at 350 nm ([5]; lot AV4520080603, manufactured with sodium ascorbate (1036 MBq/mL), 2-h post EOS)","UV purity by area percent at 350 nm [5, 7]",SMILES
80%,80%,84%,84%,95%,95%,96%,96%,constant,< 5%,approximately 20 hours,greater than 90%,,,,,,,,"CNc1ccc(/C=C/c2ccc(OCCOCCOCC[18F])nc2)cc1 [^18F-AV-45, (E)-4-(2-(6-(2-(2-(2-[^18F]fluoroethoxy)ethoxy)ethoxy)pyridin-3-yl)vinyl)-N-methylbenzenamine]"
,,,,,,,,,,,,17 µg/mL,≥ 22 µg/mL,no change in concentration,76%,83%,100%,100%,CNc1ccc(/C=C/c2ccc(OCCOCCOCCF)nc2)cc1 [^19F-AV-45]
